The structures appear in SMILES notation. Counter-ions that a name gives are not always drawn.

In US7550485B2, “Substituted N-heterocycle derivatives and methods of their use” (Wyeth, priority 2003, dated 2009) one finds inhibition and EC50 data, which are given here for 26 compounds.

This test concerns the target T1, hNET (Homo sapiens, UniProt P23975).
T1 construct: expressed in transfected cells
Briefly: Norepinephrine (NE) uptake assay in MDCK-Net6 cells stably transfected with human hNET. It is filed as cell-based. The following applies: [3H]NE uptake; for inhibition at 1 µM: MDCK-Net6, 1 μM test compound; for EC50: test range 1 to 10,000 nM. The protocol:
MDCK-Net6 cells, stably transfected with human hNET (Pacholczyk, T., R. D. Blakely, and S. G. Amara, Nature, 1991, 350(6316): p. 350-4) were cultured in growth medium containing high glucose DMEM (Gibco, Cat. No. 11995), 10% FBS (dialyzed, heat-inactivated, US Bio-Technologies, Lot FBD1129HI) and 500 μg/ml G418 (Gibco, Cat. No. 10131). Cells were plated at 300,000/T75 flask and cells were split twice weekly. The JAR cell line (human placental choriocarcinoma) was purchased from ATCC (Cat. No. HTB-144). The cells were cultured in growth medium containing RPMI 1640 (Gibco, Cat. No. 72400), 10% FBS (Irvine, Cat. No. 3000), 1% sodium pyruvate (Gibco, Cat. No. 1136) and 0.25% glucose. Cells were plated at 250,000 cells/T75 flask and split twice weekly. For all assays, cells were plated in Wallac 96-well sterile plates (PerkinElmer, Cat. No. 3983498).
Norepinephrine (NE) Uptake Assay
On day 1, cells were plated at 3,000 cells/well in growth medium and maintained in a cell incubator (37° C., 5% CO2). On day 2, growth medium was replaced with 200 μl of assay buffer (25 mM HEPES; 120 mM NaCl; 5 mM KCl; 2.5 mM CaCl2; 1.2 mM MgSO4; 2 mg/ml glucose (pH 7.4, 37° C.)) containing 0.2 mg/ml ascorbic acid and 10 μM pargyline. Plates containing cells with […] of assay buffer were equilibrated for 10 minutes at 37° C. prior to addition of compounds. A stock solution of desipramine was prepared in DMSO (10 mM) and delivered to triplicate wells containing cells for a final test concentration of 1 μM. Data from these wells were used to define non-specific NE uptake (minimum NE uptake). Test compounds were prepared in DMSO (10 mM) and diluted in assay buffer according to test range (1 to 10,000 nM). Twenty-five microliters of assay buffer (maximum NE uptake) or test compound were added directly to triplicate wells containing cells in 200 μl of assay buffer. The cells in assay buffer with test compounds were incubated for 20 minutes at 37° C. To initiate the NE uptake, [^3H]NE diluted in assay buffer (120 nM final assay concentration) was delivered in 25 μl aliquots to each well and the plates were incubated for 5 minutes (37° C.). The reaction was terminated by decanting the supernatant from the plate. The plates containing cells were washed twice with 200 μl assay buffer (37° C.) to remove free radioligand. The plates were then inverted, left to dry for 2 minutes, then reinverted and air-dried for an additional 10 minutes. The cells were lysed in 25 μl of 0.25 N NaOH solution (4° C.), placed on a shake table and vigorously shaken for 5 minutes. After cell lysis, 75 μl of scintillation cocktail was added to each well and the plates were sealed with film tape. The plates were returned to the shake table and vigorously shaken for a minimum of 10 minutes to ensure adequate partitioning of organic and aqueous solutions. The plates were counted in a Wallac Microbeta counter (PerkinElmer) to collect the raw cpm data.
For each experiment, a data stream of cpm values collected from the Wallac Microbeta counter was downloaded to a Microsoft Excel statistical application program. Calculations of EC50 values were made using the transformed-both-sides logistic dose response program written by Wyeth Biometrics Department. The statistical program uses mean cpm values from wells representing maximum binding or uptake (assay buffer) and mean cpm values from wells representing minimum binding or uptake ((1 μM desipramine (hNET) or 1 μM paroxetine (hSERT)). Estimation of the EC50 value was completed on a log scale and the line was fit between the maximum and minimum binding or uptake values. All graphic data representation was generated by normalizing each data point to a mean percent based on the maximum and minimum binding or uptake values. The EC50 values reported from multiple experiments were calculated by pooling the raw data from each experiment and analyzing the pooled data as one experiment.

T1 sequence (P23975 whole entry): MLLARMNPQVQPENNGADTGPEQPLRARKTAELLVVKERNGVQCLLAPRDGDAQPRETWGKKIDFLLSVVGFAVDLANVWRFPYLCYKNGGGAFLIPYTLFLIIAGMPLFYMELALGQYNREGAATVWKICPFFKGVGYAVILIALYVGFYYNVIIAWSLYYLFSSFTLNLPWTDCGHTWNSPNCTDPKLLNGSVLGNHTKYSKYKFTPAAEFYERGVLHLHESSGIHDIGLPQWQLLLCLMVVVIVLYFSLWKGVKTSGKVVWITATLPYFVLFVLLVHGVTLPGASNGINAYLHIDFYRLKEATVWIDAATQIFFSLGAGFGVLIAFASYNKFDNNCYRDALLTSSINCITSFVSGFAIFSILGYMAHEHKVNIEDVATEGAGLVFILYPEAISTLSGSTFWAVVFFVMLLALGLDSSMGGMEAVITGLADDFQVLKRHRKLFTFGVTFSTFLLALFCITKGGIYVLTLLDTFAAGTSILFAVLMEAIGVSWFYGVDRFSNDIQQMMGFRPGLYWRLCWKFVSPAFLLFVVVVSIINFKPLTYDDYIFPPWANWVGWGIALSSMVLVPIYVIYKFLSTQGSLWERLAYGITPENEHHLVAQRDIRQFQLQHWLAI

Usually inhibition stands for the percentage by which the read-out fell short of the control. Compound `N[C@H]1CCN(CC(c2ccc(OCc3ccccc3)cc2)C2(O)CCCCC2)C1` (stereo partly drawn) [Example 213, 1-{2-[(3S)-3-aminopyrrolidin-1-yl]-1-[4 (benzyloxy)phenyl]ethyl}cyclohexanol dihydrochloride] displayed an inhibition at 1 µM of 84.5%.
The term EC50 denotes the concentration giving half of the maximal effect. Read a high EC50 as a need for much substance. `NC1CCN(CC(c2cccc(Cl)c2)C2(O)CCCCC2)CC1` (stereo not shown) [Example 35, 1-[2-(4-aminopiperidin-1-yl)-1-(3-chlorophenyl)ethyl]cyclohexanol dihydrochloride] returned an inhibition at 1 µM of 59% and an EC50 of 52 nM.
`CN(C)[C@H]1CCN(CC(c2cccc(Cl)c2)C2(O)CCCCC2)C1` (stereo partly drawn) [Example 199, 1-{1-(3-chlorophenyl)-2-[(3S)-3-(dimethylamino)pyrrolidin-1-yl]ethyl}cyclohexanol dihydrochloride] yielded an inhibition at 1 µM of 80.7%.
On the same count and under the same terms, the same measure for `COc1ccc(C(CN2CCC(N3CCCCC3)CC2)C2(O)CCCCC2)cc1Cl` (stereo not shown) [Example 458, 1-[2-(1,4′-bipiperidin-1′-yl)-1-(3-chloro-4-methoxyphenyl)ethyl]cyclohexanol dihydrochloride]: 79%; for `N[C@H]1CCN(CC(c2ccc(OCc3ccccc3)c(Cl)c2)C2(O)CCCCC2)C1` (stereo partly drawn) [Example 210, 1-{2-[(3S)-3-aminopyrrolidin-1-yl]-1-[4-(benzyloxy)-3-chlorophenyl]ethyl}cyclohexanol dihydrochloride]: 88.8%.
`CNC1CCN(CC(c2cccc(Cl)c2)C2CCCCCC2)CC1` (stereo not shown) [Example 236, 1-[2-(3-chlorophenyl)-2-cycloheptylethyl]-N-methylpiperidin-4-amine dihydrochloride] had an inhibition at 1 µM of 49.7%.
In turn, `OC1(C(CN2CCC(N3CCCC3)CC2)c2ccc3ccccc3c2)CCCCC1` (stereo not shown) [Example 31, 1-[1-(2-naphthyl)-2-(4-pyrrolidin-1-ylpiperidin-1-yl)ethyl]cyclohexanol dihydrochloride] gave an inhibition at 1 µM of 70% and a concentration giving a half-maximal response (EC50) of 50 nM.
The matching figures for `OC1(C(CN2CCC(N3CCCC3)CC2)c2cccc(Br)c2)CCCCC1` (stereo not shown) [Example 7, 1-[1-(3-bromophenyl)-2-(4-pyrrolidin-1-ylpiperidin-1-yl)ethyl]cyclohexanol dihydrochloride]: 96% and 70 nM.
`N[C@@H]1CCN(CC(c2cccc(C(F)(F)F)c2)C2(O)CCCCC2)C1` (stereo partly drawn) [Example 224, 1-{2-[(3R)-3-aminopyrrolidin-1-yl]-1-[3-(trifluoromethyl)phenyl]ethyl}cyclohexanol dihydrochloride] showed an inhibition at 1 µM of 27.5%.
For the compound `CCCC(O)(CCC)C(CN1CCC(N)CC1)c1cccc(Cl)c1` (stereo not shown) [Example 282, 4-[2-(4-aminopiperidin-1-yl)-1-(3-chlorophenyl)ethyl]heptan-4-ol dihydrochloride], under “MDCK-Net6, 10 μM test compound (stated in cell)”, testing at 10 µM gave an inhibition of 4.1%.
`CN(C)C1CCN(CC(c2cccc(Cl)c2)C(C)(C)O)CC1` (stereo not shown) [Example 274, 3-(3-chlorophenyl)-4-[4-(dimethylamino)piperidin-1-yl]-2-methylbutan-2-ol dihydrochloride]: 1 µM produced 50% inhibition.
With `OC1([C@H](CN2CCC(N3CCCC3)CC2)c2cccc(OC(F)(F)F)c2)CCCCC1` [Example 365, 1-{(1S)-2-(4-pyrrolidin-1-ylpiperidin-1-yl)-1-[3-(trifluoromethoxy)phenyl]ethyl}cyclohexanol dihydrochloride], the inhibition at 1 µM is 94% and the response was half-maximal at 78 nM (EC50).
In turn, `CNC1CCN(C[C@H](c2cccc(Cl)c2)C2CCCCC2)CC1` (single isomer, unassigned) [Example 355, dihydrochloride] came in with an inhibition at 1 µM of 71% and an EC50 of 730 nM.
Compound `CN[C@H]1CCCN(CC(c2cccc(OC(F)(F)F)c2)C2(O)CCCCC2)C1` (stereo partly drawn) [Example 189, 1-{2-[(3S)-3-(methylamino)piperidin-1-yl]-1-[3-(trifluoromethoxy)phenyl]ethyl}cyclohexanol dihydrochloride] yielded an inhibition at 1 µM of 67.9%.
The compound `NC1CCN(CC(c2cccc(Br)c2)C2(O)CCCCC2)CC1` (stereo not shown) [Example 18, 1-[2-(4-aminopiperidin-1-yl)-1-(3-bromophenyl)ethyl]cyclohexanol dihydrochloride] had an inhibition at 1 µM of 88% and an EC50 of 200 nM.
The matching figures for `NC1CCN(CC(c2ccc3ccccc3c2)C2(O)CCCCC2)CC1` (stereo not shown) [Example 32, 1-[2-(4-aminopiperidin-1-yl)-1-(2-naphthyl)ethyl]cyclohexanol dihydrochloride]: 69% and 170 nM.
In the case of `CN[C@@H]1CCN(CC(c2ccc(OCc3ccccc3)cc2)C2(O)CCCCC2)C1` (stereo partly drawn) [Example 382, 1-{1-[4-(benzyloxy)phenyl]-2-[(3R)-3-(methylamino)pyrrolidin-1-yl]ethyl}cyclohexanol dihydrochloride], 1 µM produced 50% inhibition.
`COc1ccc(C(CN2CCC(N)CC2)C2(O)CCCCC2)cc1Br` (stereo not shown) [Example 25, 1-[2-(4-aminopiperidin-1-yl)-1-(3-bromo-4-methoxyphenyl)ethyl]cyclohexanol dihydrochloride] showed an inhibition at 1 µM of 85% and a 50% effective concentration (EC50) of 200 nM.
`CN[C@H]1CCN(CC(c2cccc3ccccc23)C2(O)CCCCC2)C1` (stereo partly drawn) [Example 206, 1-[2-[(3S)-3-(methylamino)pyrrolidin-1-yl]-1-(1-naphthyl)ethyl]cyclohexanol dihydrochloride]: the inhibition at 1 µM worked out at 19.2%.
Take `CNC1CCN(CC(c2ccc3ccccc3c2)C2(O)CCCCC2)CC1` (stereo not shown) [Example 49, 1-[2-[4-(methylamino)piperidin-1-yl]-1-(2-naphthyl)ethyl]cyclohexanol dihydrochloride]: testing at 1 µM gave an inhibition of 39%.
On the same count and under the same terms, the same measure for `CN(C)[C@H]1CCN(CC(c2cccc(C(F)(F)F)c2)C2(O)CCCCC2)C1` (stereo partly drawn) [Example 222, 1-{2-[(3S)-3-(dimethylamino)pyrrolidin-1-yl]-1-[3-(trifluoromethyl)phenyl]ethyl}cyclohexanol dihydrochloride]: 31.9%; for `CN(C)C1CCN(CC(c2cccc(Cl)c2)C2CCCCC2)CC1` (stereo not shown) [Example 233, 1-[2-(3-chlorophenyl)-2-cyclohexylethyl]-N,N-dimethylpiperidin-4-amine dihydrochloride]: 91.1%.
On to `CNC1CCN(CC(c2ccc(OC)c(Br)c2)C2(O)CCCCC2)CC1` (stereo not shown) [Example 29, 1-{1-(3-bromo-4-methoxyphenyl)-2-[4-(methylamino)piperidin-1-yl]ethyl}cyclohexanol dihydrochloride], for which the inhibition at 1 µM is 79% and the EC50 turned out to be 150 nM.
Compound `CC(C)(O)C(CN1CCC(N)CC1)c1cccc(Cl)c1` (stereo not shown) [Example 273, 4-(4-aminopiperidin-1-yl)-3-(3-chlorophenyl)-2-methylbutan-2-ol dihydrochloride] returned an inhibition at 1 µM of 79%.
`COc1ccc2cc([C@@H](CN3CCC(N4CCCCC4)CC3)C3(O)CCCCC3)ccc2c1` (single isomer, unassigned) [Example 353, dihydrochloride] yielded an inhibition at 1 µM of 67% and an EC50 of 320 nM.
The matching figures for `CNC1CCN(CC(c2cccc(Cl)c2)C2(O)CCCCC2)CC1` (stereo not shown) [Example 17, 1-{1-(3-chlorophenyl)-2-[4-(methylamino)piperidin-1-yl]ethyl}cyclohexanol dihydrochloride]: 88% and 91 nM.
